Experimental data from patent US5914319A, “Antithrombotic agents” (Eli Lilly and Company, priority 1995, dated 1999).
Structures can show the parent of a compound that is named as a salt.

Experiments:
Type in all cases: biochemical
human thrombin = human thrombin (Homo sapiens, UniProt P00734); test: Inhibition of the amidase activity of thrombin (Kass); conditions: mean over a range of test compound concentrations; […]
Human plasma [1] = test: Human plasma anticoagulation, thrombin time (TT); conditions: concentration required to double the thrombin time, linear extrapolation
Method: (§1) Dog plasma and rat plasma is obtained from conscious mixed-breed hounds (either sex, Hazelton-LRE, Kalamazoo, Mich., U.S.A.) or from anesthetized male Sprague-Dawley rats (Harlan Sprague-Dawley, Inc., Indianapolis, Ind., U.S.A.) by venipuncture into 3.8 percent citrate. Fibrinogen is prepared from in-date ACD human blood as the fraction I-2 according to previous procedures and specifications. […] Human fibrinogen is also purchased as 98 percent pure/plasmin free from American Diagnostica, Greenwich, Conn. Coagulation reagents ACTIN, Thromboplastin, and Human plasma are from Baxter Healthcare Corp., Dade Division, Miami, Fla. Bovine thrombin from Parke-Davis ([…], Mich.) is used for coagulation assays in plasma.
(§2) Coagulation assay procedures are as previously described. […] A CoAScreener coagulation instrument (American LABor, Inc.) is used for all coagulation assay measurements. The prothrombin time (PT) is measured by adding 0.05 mL saline and 0.05 mL Thromboplastin-C reagent to 0.05 mL test plasma. The activated partial thromboplastin time (APTT) is measured by incubation of 0.05 mL test plasma with 0.05 mL Actin reagent for 120 seconds followed by 0.05 mL CaCl2 (0.02M). The thrombin time (TT) is measured by adding 0.05 mL saline and 0.05 mL thrombin (10 NIH units/mL) to 0.05 mL test plasma. The compounds of Formula I are added to human or animal plasma over a wide range of concentrations to determine prolongation effects on the APTT, PT, and TT assays. Linear extrapolations are performed to estimate the concentrations required to double the clotting time for each assay.

Human plasma [2] = test: Human plasma anticoagulation, activated partial thromboplastin time (APTT); conditions: concentration required to double the APTT, linear extrapolation
Method: as §1, §2

Human plasma [3] = test: Human plasma anticoagulation, prothrombin time (PT); conditions: concentration required to double the PT, linear extrapolation
Method: as §1, §2

Kass × 10^6 (L/mole) Human Thrombin (human thrombin) | Compound | Human Plasma Anticoagulation 2× Clotting time (ng/mL) TT (Human plasma [1]) | Human Plasma Anticoagulation 2× Clotting time (ng/mL) APTT (Human plasma [2]) | Human Plasma Anticoagulation 2× Clotting time (ng/mL) PT (Human plasma [3])
10 × 10^6 L/mole | N=C(N)c1ccc(CNC(=O)[C@@H]2C[C@@H]3CCCC[C@@H]3N2C(=O)[C@H]2CCCCN2)cc1 [Example 20, D-hPro-Ohi-p-NHCH2 C6 H4 C(NH)NH2.3HCl] | 62 ng/mL | 550 ng/mL | 600 ng/mL
3.6 × 10^6 L/mole | Cl.Cl.N=C(N)c1ccc(CNC(=O)CN(CCc2ccccc2)C(=O)[C@H]2CCCCN2)cc1 [Example 21, D-hPro-N(PhCH2CH2)Gly-p-NHCH2 C6 H4 C(NH)NH2.2HCl] | 160 ng/mL | 2,000 ng/mL | 1,000 ng/mL
 | Cl.N=C(N)c1ccc(CNC(=O)[C@@H]2CCCN2C(=O)[C@@H](CC2CCCCC2)NCC(=O)O)c(F)c1 [Example 71, HO2 CCH2 -D-Cha-Pro-4-NHCH2 -3-F-benzamidine.HCl] | 1 ng/mL | 89 ng/mL | 150 ng/mL
 | Cl.N=C(N)c1cc(F)c(CNC(=O)[C@@H]2CCCN2C(=O)[C@@H](CC2CCCCC2)NCC(=O)O)c(F)c1 [Example 72, HO2 CCH2 -D-Cha-Pro-4-NHCH2 -3,5-F2 -benzamidine.HCl] | 1 ng/mL | 160 ng/mL | 160 ng/mL
 | Cl.Nc1cc(CNC(=O)[C@@H]2CCCN2C(=O)[C@@H](CC2CCCCC2)NCC(=O)O)ccn1 [Example 73, HO2 CCH2 -D-Cha-Pro-4-NHCH2 -2-aminopyridine.HCl] | 21 ng/mL | 340 ng/mL | 330 ng/mL
 | Cl.Nc1ccc(CNC(=O)[C@@H]2CCCN2C(=O)[C@@H](CC2CCCCC2)NCC(=O)O)cn1 [Example 74, HO2 CCH2 -D-Cha-Pro-5-NHCH2 -2-aminopyridine.HCl] | 20 ng/mL | 420 ng/mL | 350 ng/mL
 | Cl.Nc1cc(CCNC(=O)[C@@H]2CCCN2C(=O)[C@@H](CC2CCCCC2)NCC(=O)O)ccn1 [Example 76, HO2 CCH2 -D-Cha-Pro-4-NHCH2 CH2 -2-aminopyridine.HCl] | 29 ng/mL | 490 ng/mL | 560 ng/mL
 | Nc1ccc(CNC(=O)[C@@H]2CCCN2C(=O)[C@@H](CC2CCCCC2)NCC(=O)O)cc1F [Example 77, HO2 CCH2 -D-Cha-Pro-4-NHCH2 -2-F-aniline.HCl] | 53 ng/mL | 1,600 ng/mL | 890 ng/mL
 | NCc1ccc(CNC(=O)[C@@H]2CCCN2C(=O)[C@@H](CC2CCCCC2)NCC(=O)O)cc1 [Example 78, HO2 CCH2 -D-Cha-Pro-4-NHCH2 C6 H4 CH2 NH2.HCl] | 46 ng/mL | 430 ng/mL | 760 ng/mL
 | NCC1CCC(CNC(=O)[C@@H]2CCCN2C(=O)[C@@H](CC2CCCCC2)NCC(=O)O)CC1 (stereo partly drawn) [Example 79, HO2 CCH2 -D-Cha-Pro-4-NHCH2 C6 H10 CH2 NH2.HCl] | 140 ng/mL | 1,700 ng/mL | 2,400 ng/mL
 | CCS(=O)(=O)N[C@H](CC1CCCCC1)C(=O)N1CCC[C@H]1C(=O)NCc1ccc(C(=N)N)cc1.Cl [Example 80, EtSO2 -D-Cha-Pro-4-NHCH2 C6 H4 C(NH)NH2.HCl] | 4 ng/mL | 40 ng/mL | 130 ng/mL
 | CCS(=O)(=O)N[C@H](CC1CCCCC1)C(=O)N1CCC[C@H]1C(=O)NCc1ccc(CN)cc1 [Example 81, EtSO2 -D-Cha-Pro-4-NHCH2 C6 H4 CH2 NH2.HCl] | 110 ng/mL | 1,500 ng/mL | 2,700 ng/mL
 | CCS(=O)(=O)N[C@H](CC1CCCCC1)C(=O)N1CCC[C@H]1C(=O)NCc1ccnc(N)c1.Cl [Example 83, EtSO2 -D-Cha-Pro-4-NHCH2 -2-aminopyridine.HCl] | 91 ng/mL | 1,000 ng/mL | 1,300 ng/mL
 | CCS(=O)(=O)N[C@H](CC1CCCCC1)C(=O)N1CCC[C@H]1C(=O)NCc1ccc(N)nc1.Cl [Example 84, EtSO2 -D-Cha-Pro-5-NHCH2 -2-aminopyridine.HCl] | 110 ng/mL | 1,500 ng/mL | 1,900 ng/mL
 | N=C(N)c1ccc(CNC(=O)[C@@H]2CCCN2C(=O)[C@@H](CC2CCCCC2)NCCCC(=O)O)cc1 [Example 85, HOOCCH2 CH2 CH2 -D-Cha-Pro-p-NHCH2 C6 H4 C(NH)NH2.HCl] | 4.9 ng/mL | 100 ng/mL | 197 ng/mL
 | N=C(N)c1ccc(CNC(=O)[C@@H]2CCCN2C(=O)[C@H](NCC(=O)O)C2CCCCC2)cc1 [Example 86, HOOCCH2 -D-Chg-Pro-p-NHCH2 C6 H4 C(NH)NH2.HCl] | 4 ng/mL | 81 ng/mL | 180 ng/mL
 | N=C(N)c1ccc(CNC(=O)[C@@H]2CCCN2C(=O)[C@@H](CCC2CCCCC2)NCC(=O)O)cc1 [Example 88, HOOCCH2 -D-hCha-Pro-p-NHCH2 C6 H4 C(NH)NH2.HCl] | 4 ng/mL | 100 ng/mL | 200 ng/mL
 | Cl.N=C(N)c1ccc(CNC(=O)CN(CCc2ccccc2)C(=O)CNCC(=O)O)cc1 [Example 89, HOOCCH2 -Gly-N-C6 H5 CH2 CH2 Gly-p-NHCH2 C6 H4 C(NH)NH2.HCl] | 570 ng/mL | 51,000 ng/mL | 37,000 ng/mL
 | CCC(CC)C(=O)N[C@@H](CCC(=O)O)C(=O)N1CCC[C@H]1C(=O)NCc1ccc(C(=N)N)cc1 [Example 90, (C2 H5)2 CHCO-Glu-Pro-p-NHCH2 C6 H4 C(NH)NH2.HCl] | 330 ng/mL | 14,500 ng/mL | 14,600 ng/mL
 | CCC(CC)C(=O)N[C@@H](CCS(C)(=O)=O)C(=O)N1CCC[C@H]1C(=O)NCc1ccc(C(=N)N)cc1 [Example 91, (C2 H5)2 CHCO-Met(O2)-Pro-p-NHCH2 C6 H4 C(NH)NH2.HCl] | 63 ng/mL | 3,000 ng/mL | 3,500 ng/mL
 | CS(=O)(=O)CC(=O)N[C@H](CC1CCCCC1)C(=O)N1CCC[C@H]1C(=O)NCc1ccc(C(=N)N)cc1 [Example 92, MeSO2 CH2 CO-D-Cha-Pro-p-NHCH2 C6 H4 C(NH)NH2.HCl] | 8.9 ng/mL | 210 ng/mL | 340 ng/mL
 | D-hPro-Pro-p-NHCH2 C6 H4 C(NH)NH2.HCl [Example 17] | 26 ng/mL | 370 ng/mL | 400 ng/mL
 | EtSO2 -D-Phe-Pro-p-NHCH2 CH2 C6 H4 CNH(NH)NH2.HCl [Example 35] | 4,500 ng/mL | 50,400 ng/mL | 78,400 ng/mL
 | HOOCCH2 -D-Phe-Pro(4-cis-isoamyl)-p-NHCH2 C6 H4 C(NH)NH2.HCl [Example 50] | 35 ng/mL | 460 ng/mL | 420 ng/mL
 | HOOCCH2 -D-Phe-Pro-p-NHCH2 C6 H4 C(NH)NH2.HCl [Example 46] | 2. ng/mL | 67 ng/mL | 77 ng/mL
13. × 10^6 L/mole | NMI-D-Phe-Pro-Agm.HCl [Example 4] | 230 ng/mL |  | 
